Measurements: patent publication US9708336B2, “Metallo-beta-lactamase inhibitors” (priority 2014, dated 2017)
Like-named read-outs stand apart in the source and are kept apart here. Each block holds one molecule with its values, some of them ahead of it.

Columns and labels:
[1] = tested on: Escherichia coli expressing NDM-1 (CLB30016); assay: Antibiotic potentiation activity: synergistic concentration (MITC95) with imipenem, OD600 growth; assay type: cell-based; details: for Escherichia coli expressing NDM-1 (CLB 30016) MITC95: concentration giving 95% inhibition of bacterial growth; for Escherichia coli MITC95: 95% growth inhibition
Protocol: (§1) Antibiotic Potentiation Activity: Determination of Synergistic Concentration
(§2) The bacterial strains tested included the clinical strains Escherichia coli expressing NDM-1 (CLB30005, CLB30016), Serratia marcescens expressing IMP-1 (CL5741), and Klebsiella pneumoniae expressing VIM-1 (IHMA599644) Inhibitor activity was measured in the presence and absence of imipenem in a 384-well microplate.
(§3) The clinical strains CLB30016, CL5741 and IHMA599644 were grown on trypticase soy agar containing 5% sheep's blood. The clinical strain CLB30005 was grown on Mueller Hinton broth agar containing 8 ug/ml imipenem. The bacteria on agar plates were incubated at 35° C. with humidity overnight. The following day, individual colonies from each clinical strain were picked and resuspended in 5 ml saline to attain an OD600 of 0.14, 0.11, 0.15 and 0.13, for CLB30005, CLB30016, CL5741 and IHMA599644, respectively. These were further diluted 1:100 into 1.1×CAMHB and used to inoculate the test wells as described below.
(§4) Imipenem in 10 mM 3-(N-morpholino)propanesulfonic acid (MOPS, pH 7) was stored in single use aliquots at −80° C. […] On the day of the assay, 4 μl of antibiotic was added to 45 ul of bacteria followed by 1 μl of test compound and mixed by pipetting and with an orbital shaker. The concentration of antibiotic used in the assay was 4 μg/ml, or optionally 1 μg/ml. Microplates were covered and incubated at 35° C. for 22 hours to 24 hours. At the end of the incubation, absorbance was determined using a spectrophotometer.

[2] = tested on: Klebsiella pneumoniae expressing VIM-1 (IHMA599644); assay: as above; assay type: cell-based; details: for Klebsiella pneumoniae expressing VIM-1 (IHMA 599644) MITC95: concentration giving 95% inhibition of bacterial growth; for Klebsiella pneumoniae MITC95: 95% growth inhibition
Protocol: as §1, §2, §3, §4

[3] = tested on: Serratia marcescens expressing IMP-1 (CL5741); assay: as above; assay type: cell-based; details: for Serratia marcescens expressing IMP-1 (CL5741) MITC95: concentration giving 95% inhibition of bacterial growth; for Serratia marcescens MITC95: 95% growth inhibition
Protocol: as §1, §2, §3, §4

[4] = target: NDM-1 (Klebsiella pneumoniae, UniProt C7C422); assay: biochemical; assay type: biochemical; details: read-out: NDM-1 IC50
Chain of NDM-1 (C7C422 whole entry, looked up, species assumed): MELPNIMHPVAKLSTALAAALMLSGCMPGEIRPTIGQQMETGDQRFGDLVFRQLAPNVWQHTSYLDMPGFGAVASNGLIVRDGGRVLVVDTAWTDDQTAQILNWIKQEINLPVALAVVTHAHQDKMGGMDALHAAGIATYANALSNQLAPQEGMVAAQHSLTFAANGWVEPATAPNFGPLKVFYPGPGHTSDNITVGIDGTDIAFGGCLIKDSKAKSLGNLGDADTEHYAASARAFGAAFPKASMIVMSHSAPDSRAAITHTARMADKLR

[5] = target: IMP-1 (Serratia marcescens, UniProt P52699); assay: biochemical; assay type: biochemical; details: read-out: IMP-1 IC50
Chain of IMP-1 (P52699 whole entry, looked up): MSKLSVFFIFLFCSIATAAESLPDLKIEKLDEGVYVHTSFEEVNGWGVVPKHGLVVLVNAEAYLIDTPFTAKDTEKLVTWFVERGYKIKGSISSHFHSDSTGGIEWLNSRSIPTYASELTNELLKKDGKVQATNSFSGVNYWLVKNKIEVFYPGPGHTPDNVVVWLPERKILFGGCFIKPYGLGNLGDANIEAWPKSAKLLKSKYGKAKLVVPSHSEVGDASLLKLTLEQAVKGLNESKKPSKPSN

[6] = target: VIM-1 (Pseudomonas aeruginosa (strain ATCC 15692 / DSM 22644 / CIP 104116 / JCM 14847 / LMG 12228 / 1C / PRS 101 / PAO1), UniProt A0A0F7KYQ8); assay: Enzyme activity: determination of IC50, fluorescence assay with CCF2-FA substrate (VIM-1); assay type: biochemical
[7] = fluorescence assay with CCF2-FA substrate
[8] = NDM-1 enzyme, CCF2-FA substrate
[9] = IMP-1 enzyme, CCF2-FA substrate
[10] = Klebsiella pneumoniae IHMA599644 (VIM-1)
[11] = Serratia marcescens CL5741 (IMP-1)
[12] = IMP-1 enzyme, CCF2-FA fluorescence assay
[13] = Escherichia coli expressing NDM-1 (CLB30016)
[14] = Klebsiella pneumoniae expressing VIM-1 (IHMA599644)
[15] = Serratia marcescens expressing IMP-1 (CL5741)
[16] = fluorescence assay with CCF2-FA substrate; read-out: VIM-1 IC50

Compound: NS(=O)(=O)c1cccc(-c2ccc3ncnn3c2)c1-c1nnn[nH]1 [Example 111, 3-([1,2,4]triazolo[1,5-a]pyridin-6-yl)-2-(1H-tetrazol-5-yl)benzenesulfonamide]
- Escherichia coli expressing NDM-1 (CLB 30016) MITC95 [1]: 1.172 µM
- Klebsiella pneumoniae expressing VIM-1 (IHMA 599644) MITC95 [2]: 18.75 µM
- Serratia marcescens expressing IMP-1 (CL5741) MITC95 [3]: 9.375 µM

Compound: NS(=O)(=O)c1cccc(C2=CCS(=O)(=O)CC2)c1-c1nnn[nH]1 [Example 141, 3-(1,1-dioxido-3,6-dihydro-2H-thiopyran-4-yl)-2-(1H-tetrazol-5-yl)benzenesulfonamide]
- IC50 [4, 7]: 61.5 nM
- IC50 [5, 7]: 2340 nM
- Escherichia coli expressing NDM-1 (CLB 30016) MITC95 [1]: 0.7813 µM
- Klebsiella pneumoniae expressing VIM-1 (IHMA 599644) MITC95 [2]: 200 µM
- Serratia marcescens expressing IMP-1 (CL5741) MITC95 [3]: 37.5 µM

Compound: NS(=O)(=O)c1c(C(F)(F)F)ccc(C2CCC2)c1-c1nnn[nH]1 [Example 492, 3-cyclobutyl-2-(1H-tetrazol-5-yl)-6-(trifluoromethyl)benzenesulfonamide]
- IC50 [4, 8]: 17.3 nM
- IC50 [5, 9]: 16 nM
- Escherichia coli MITC95 ([1]; (CLB30016, NDM-1)): 3.125 µM
- Klebsiella pneumoniae MITC95 [2, 10]: 12.5 µM
- Serratia marcescens MITC95 [3, 11]: 0.3906 µM

Compound: NCCNc1ccc(-c2cccc(S(N)(=O)=O)c2-c2nnn[nH]2)cn1 [Example 634, 3-[6-(2-aminoethylamino)-3-pyridyl]-2-(1H-tetrazol-5-yl)benzenesulfonamide]
- IC50 [4, 8]: 14.1 nM
- IC50 [5, 9]: 1280 nM
- Escherichia coli MITC95 ([1]; (CLB30016, NDM-1)): 0.5859 µM
- Klebsiella pneumoniae MITC95 [2, 10]: 6.25 µM
- Serratia marcescens MITC95 [3, 11]: 18.75 µM

- IC50 ([4]; NDM-1 enzyme, CCF2-FA fluorescence assay): 591 nM
- IC50 [5, 12]: 112000 nM
- IC50 ([6]; VIM-1 enzyme, CCF2-FA fluorescence assay; read-out: VIM-1 IC50): 156000 nM
Compound: Cc1cc(-c2nnn[nH]2)c(S(N)(=O)=O)cc1C [Example 252, 4,5-Dimethyl-2-(2H-tetrazol-5-yl)benzenesulfonamide]

Compound: NS(=O)(=O)c1nccc(N2CCC(CN3CCOCC3)CC2)c1-c1nnn[nH]1 [Example 224, 4-[4-(morpholin-4-ylmethyl)piperidin-1-yl]-3-(1H-tetrazol-5-yl)pyridine-2-sulfonamide]
- IC50 [4, 7]: 247 nM
- Escherichia coli expressing NDM-1 (CLB 30016) MITC95 [1]: 4.688 µM
- Klebsiella pneumoniae expressing VIM-1 (IHMA 599644) MITC95 [2]: 200 µM
- Serratia marcescens expressing IMP-1 (CL5741) MITC95 [3]: 18.75 µM

Compound: NC1CCC(Cc2ccc(-c3ccc(C4CCNCC4)cc3)c(-c3nn[nH]n3)c2S(N)(=O)=O)CC1 (centres unmarked) [Example 463, 4-(((1r,4r)-4-aminocyclohexyl)methyl)-4′-(piperidin-4-yl)-2-(2H-tetrazol-5-yl)-[1,1′-biphenyl]-3-sulfonamide]
- IC50 [5, 12]: 6.58 nM
- Escherichia coli MITC95 [1, 13]: 0.7813 µM
- Klebsiella pneumoniae MITC95 [2, 14]: 0.7813 µM
- Serratia marcescens MITC95 [3, 15]: 0.1953 µM

Compound: NS(=O)(=O)c1cccc(-c2ccc(CO)cc2)c1-c1nnn[nH]1 [Example 26, 4′-(hydroxymethyl)-2-(1H-tetrazol-5-yl)biphenyl-3-sulfonamide]
- IC50 [4, 7]: 2.43 nM
- IC50 [5, 7]: 46.2 nM
- IC50 [6, 16]: 58.4 nM
- Klebsiella pneumoniae expressing VIM-1 (IHMA 599644) MITC95 [2]: 50 µM

Compound: NS(=O)(=O)c1cccc(C2CCN(C(=O)C3(c4ccccc4)CC3)CC2)c1-c1nn[nH]n1 [Example 176, 3-(1-(1-phenylcyclopropanecarbonyl)piperidin-4-yl)-2-(2H-tetrazol-5-yl)benzenesulfonamide]
- IC50 [4, 7]: 6.43 nM
- IC50 [5, 7]: 72.8 nM
- IC50 [6, 16]: 148 nM

- IC50 [4, 7]: 52.3 nM
- IC50 [5, 7]: 262 nM
- IC50 [6, 16]: 1910 nM
Compound: NS(=O)(=O)c1cccc(-c2ccc(C(=O)NC3CCOC3)cc2)c1-c1nn[nH]n1 (centres unmarked) [Example 2, 3′-sulfamoyl-N-(tetrahydrofuran-3-yl)-2′-(2H-tetrazol-5-yl)biphenyl-4-carboxamide]

Compound: NC1CCC(Cc2ccc(-c3ccc(C4CCNCC4)cc3)c(-c3nn[nH]n3)c2S(N)(=O)=O)CC1 (centres unmarked) [Example 455, 4-(((1s,4s)-4-aminocyclohexyl)methyl)-4′-(piperidin-4-yl)-2-(2H-tetrazol-5-yl)-[1,1′-biphenyl]-3-sulfonamide]
- IC50 [5, 12]: 6.29 nM
- Escherichia coli MITC95 [1, 13]: 0.5859 µM
- Klebsiella pneumoniae MITC95 [2, 14]: 1.563 µM
- Serratia marcescens MITC95 [3, 15]: 0.3906 µM

Compound: NS(=O)(=O)c1c(C(F)(F)F)ccc(N2CC3(CCNCC3)C2)c1-c1nnn[nH]1 [Example 782]
- IC50 ([6]; read-out: VIM-1 IC50; fluorescence assay with CCF2-FA substrate): 9.5 nM
